Source: ChEMBL document CHEMBL3822426, “A cascade screening approach for the identification of Bcr-Abl myristate pocket binders active against wild type and T315I mutant” (Bioorg Med Chem Lett, 2016)
The source made the active and inactive calls. The rule behind the calls is not given here.

Columns and labels:
[1] = test system: Tyrosine-protein kinase ABL1 (Homo sapiens), P00519 [T315I]; settings: Sf21, 50 uM
Description: Allosteric inhibition of recombinant human N-terminal His6-tagged ABL (27-end residues) T315I mutant expressed in baculovirus infected sf21 cells assessed as Vmax(app) for ATP at 50 uM incubated for 10 mins in presence of [gamma32P]ATP by scintillation counting method

[2] = test system: Bcr/Abl fusion protein (Homo sapiens), P00519+P11274 [T315I]; assay: Inhibition of BCR/ABL T315I mutant (unknown origin) expressed in mouse 32D cells assessed as reduction in CRKL phosphorylation at Tyr-207 residue at 1 uM after 24 hrs by Western blot analysis; type: cell-based
[3] = Cytotoxicity against imatinib mesylate resistant mouse 32D cells expressing BCR/ABL T315I mutant assessed as reduction in cell viability after 48 hrs by cell counting method; type: functional, cell-based
[4] = biological target: Tyrosine-protein kinase ABL1 (Homo sapiens) (UniProt P00519); settings: 50 uM
Description: Allosteric inhibition of recombinant wild type ABL (unknown origin) assessed as Vmax(app) for ATP at 50 uM incubated for 10 mins in presence of [gamma32P]ATP by scintillation counting method

[5] = biological target: Tyrosine-protein kinase ABL1 (Homo sapiens, UniProt P00519, T315I); assay: Allosteric inhibition of recombinant human N-terminal His6-tagged ABL (27-end residues) T315I mutant expressed in baculovirus infected sf21 cells using Abl-tide as substrate incubated for 10 mins in presence of [gamma32P]ATP by scintillation counting method
[6] = biological target: Tyrosine-protein kinase ABL1 (Homo sapiens) (UniProt P00519); settings: 100 uM
Description: Allosteric inhibition of recombinant wild type ABL (unknown origin) assessed as Vmax(app) for ATP at 100 uM incubated for 10 mins in presence of [gamma32P]ATP by scintillation counting method

[7] = Cytotoxicity against mouse 32D cells assessed as reduction in cell viability at 0.5 to 50 uM after 48 hrs by cell counting method; type: cell-based
[8] = biological target: Tyrosine-protein kinase ABL1 (Homo sapiens) (UniProt P00519); settings: 25 uM
Description: Allosteric inhibition of recombinant wild type ABL (unknown origin) assessed as Vmax(app) for ATP at 25 uM incubated for 10 mins in presence of [gamma32P]ATP by scintillation counting method

[9] = test system: Tyrosine-protein kinase ABL1 (Homo sapiens), P00519 [T315I]; settings: Sf21, 25 uM
Description: Allosteric inhibition of recombinant human N-terminal His6-tagged ABL (27-end residues) T315I mutant expressed in baculovirus infected sf21 cells assessed as Vmax(app) for ATP at 25 uM incubated for 10 mins in presence of [gamma32P]ATP by scintillation counting method

[10] = test system: Tyrosine-protein kinase ABL1 (Homo sapiens), P00519 [T315I]; settings: Sf21, 100 uM
Description: Allosteric inhibition of recombinant human N-terminal His6-tagged ABL (27-end residues) T315I mutant expressed in baculovirus infected sf21 cells assessed as Vmax(app) for ATP at 100 uM incubated for 10 mins in presence of [gamma32P]ATP by scintillation counting method

[11] = Cytotoxicity against imatinib mesylate sensitive mouse 32D cells expressing wild type BCR/ABL p210 assessed as reduction in cell viability after 48 hrs by cell counting method; type: functional, cell-based

Row | Structure (SMILES) | Vmax(app) [1] | inhibition [2] | IC50 [3] | Vmax(app) [4] | IC50 [5] | Vmax(app) [6] | Activity [7] | Vmax(app) [8] | Vmax(app) [9] | Vmax(app) [10] | IC50 [11]
1 | C(=C\n1ncc2c(NC3CCCCC3)ncnc21)/c1ccccc1 | 8.06 pmol/min | Active | 25.1 µM | 8.57 pmol/min | 50 µM | 5.83 pmol/min | Non-toxic | 13.1 pmol/min | 15 pmol/min | 4.95 pmol/min | 8.5 µM
2 | C(=C\n1ncc2c(N3CCCCCC3)ncnc21)/c1ccccc1 | – | Active | 13.8 µM | – | 20 µM | – | Non-toxic | – | – | – | 1.2 µM
